Measured values reported in PubChem BioAssay AID1963828 (Molecular Pharmacology Branch, DTP, NCI, 2024).

Tested on: 991263-137-R1-J2-PDC complex spheroid viability
Experiment: Anticancer human tumor 991263-137-R1-J2-PDC patient-derived colon adenocarcinoma cell line growth inhibition [POLQ]
Conditions: for IC50: curve of first compound; for viability, T/C: stronger effect = lower value
Procedure, shortened: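 PDC + HUVEC + MSC complex spheroids; POLQ inhibitors ± partner drugs; top conc. at/near clinical Cmax, else 10 microM (SN-38 1 microM), half-log dilutions; 37 degrees C, 5% CO2.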

[1] = second compound 0.0316 µM, first compound 0.0316 µM
[2] = second compound 0.0316 µM, first compound 0.1 µM
[3] = second compound 0.0316 µM, first compound 0.316 µM
[4] = second compound 0.0316 µM, first compound 1 µM
[5] = second compound 0.0316 µM, first compound 3.16 µM
[6] = second compound 0.0316 µM, first compound 10 µM
[7] = second compound 0.1 µM, first compound 0.0316 µM
[8] = second compound 0.1 µM, first compound 0.1 µM
[9] = second compound 0.1 µM, first compound 0.316 µM
[10] = second compound 0.1 µM, first compound 1 µM
[11] = second compound 0.1 µM, first compound 3.16 µM
[12] = second compound 0.1 µM, first compound 10 µM
[13] = second compound 0.316 µM, first compound 0.0316 µM
[14] = second compound 0.316 µM, first compound 0.1 µM
[15] = second compound 0.316 µM, first compound 0.316 µM
[16] = second compound 0.316 µM, first compound 1 µM
[17] = second compound 0.316 µM, first compound 3.16 µM
[18] = second compound 0.316 µM, first compound 10 µM
[19] = second compound 1 µM, first compound 0.0316 µM
[20] = second compound 1 µM, first compound 0.1 µM
[21] = second compound 1 µM, first compound 0.316 µM
[22] = second compound 1 µM, first compound 1 µM
[23] = second compound 1 µM, first compound 3.16 µM
[24] = second compound 1 µM, first compound 10 µM
[25] = second compound 3.16 µM, first compound 0.0316 µM
[26] = second compound 3.16 µM, first compound 0.1 µM
[27] = second compound 3.16 µM, first compound 0.316 µM
[28] = second compound 3.16 µM, first compound 1 µM
[29] = second compound 3.16 µM, first compound 3.16 µM
[30] = second compound 3.16 µM, first compound 10 µM
[31] = second compound 10 µM, first compound 0.0316 µM
[32] = second compound 10 µM, first compound 0.1 µM
[33] = second compound 10 µM, first compound 0.316 µM
[34] = second compound 10 µM, first compound 1 µM
[35] = second compound 10 µM, first compound 3.16 µM
[36] = second compound 10 µM, first compound 10 µM
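Further: spheroids exposed to compounds for 7 days before readout.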
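Wherever viability, T/C is given: 100% = DMSO vehicle control viability.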

Structure (SMILES): C#Cc1c(F)ccc2cc(O)cc(-c3ncc4c(N5CC6CCC(C5)N6)nc(OCC56CCCN5CC(F)C6)nc4c3F)c12 (stereo unspecified) + Cc1cccc(N(C)C(=O)C2C(O)CCN2c2nc(C)cc(C(F)(F)F)c2C#N)c1
- IC50 (second compound 0.0316 µM): > 10 µM
- IC50 (second compound 0.1 µM): > 10 µM
- IC50 (second compound 0.316 µM): > 10 µM
- IC50 (second compound 1 µM): > 10 µM
- IC50 (second compound 3.16 µM): > 10 µM
- IC50 (second compound 10 µM): > 10 µM
- viability, T/C [1]: 110%
- viability, T/C [2]: 95.5%
- viability, T/C [3]: 104%
- viability, T/C [4]: 104%
- viability, T/C [5]: 92.9%
- viability, T/C [6]: 100%
- viability, T/C [7]: 97.8%
- viability, T/C [8]: 104%
- viability, T/C [9]: 109%
- viability, T/C [10]: 76.1%
- viability, T/C [11]: 106%
- viability, T/C [12]: 92.2%
- viability, T/C [13]: 101%
- viability, T/C [14]: 106%
- viability, T/C [15]: 89.8%
- viability, T/C [16]: 93.5%
- viability, T/C [17]: 97.7%
- viability, T/C [18]: 95.8%
- viability, T/C [19]: 93.8%
- viability, T/C [20]: 95%
- viability, T/C [21]: 103%
- viability, T/C [22]: 95.6%
- viability, T/C [23]: 99.9%
- viability, T/C [24]: 98.2%
- viability, T/C [25]: 95%
- viability, T/C [26]: 117%
- viability, T/C [27]: 121%
- viability, T/C [28]: 93.2%
- viability, T/C [29]: 98.7%
- viability, T/C [30]: 105%
- viability, T/C [31]: 94.8%
- viability, T/C [32]: 102%
- viability, T/C [33]: 106%
- viability, T/C [34]: 90.1%
- viability, T/C [35]: 106%
- viability, T/C [36]: 79.7%

Structure (SMILES): C=CC(=O)N1CCN(c2nc(=O)n(-c3c(C)ccnc3C(C)C)c3nc(-c4c(O)cccc4F)c(F)cc23)C(C)C1 (stereo unspecified) + Cc1cccc(N(C)C(=O)C2C(O)CCN2c2nc(C)cc(C(F)(F)F)c2C#N)c1
- IC50 (second compound 0.0316 µM): > 10 µM
- IC50 (second compound 0.1 µM): > 10 µM
- IC50 (second compound 0.316 µM): > 10 µM
- IC50 (second compound 1 µM): > 10 µM
- IC50 (second compound 3.16 µM): > 10 µM
- IC50 (second compound 10 µM): > 10 µM
- viability, T/C [1]: 104%
- viability, T/C [2]: 109%
- viability, T/C [3]: 93.5%
- viability, T/C [4]: 103%
- viability, T/C [5]: 114%
- viability, T/C [6]: 115%
- viability, T/C [7]: 114%
- viability, T/C [8]: 112%
- viability, T/C [9]: 102%
- viability, T/C [10]: 90.5%
- viability, T/C [11]: 116%
- viability, T/C [12]: 107%
- viability, T/C [13]: 97.6%
- viability, T/C [14]: 107%
- viability, T/C [15]: 102%
- viability, T/C [16]: 90.3%
- viability, T/C [17]: 120%
- viability, T/C [18]: 104%
- viability, T/C [19]: 88%
- viability, T/C [20]: 117%
- viability, T/C [21]: 107%
- viability, T/C [22]: 81.7%
- viability, T/C [23]: 115%
- viability, T/C [24]: 124%
- viability, T/C [25]: 98.7%
- viability, T/C [26]: 118%
- viability, T/C [27]: 95.7%
- viability, T/C [28]: 91.7%
- viability, T/C [29]: 123%
- viability, T/C [30]: 107%
- viability, T/C [31]: 101%
- viability, T/C [32]: 107%
- viability, T/C [33]: 108%
- viability, T/C [34]: 116%
- viability, T/C [35]: 116%
- viability, T/C [36]: 103%

Structure (SMILES): CC(C)n1c(=O)n(C)c2cnc3cc(F)c(-c4ccc(OCCCN5CCCCC5)nc4)cc3c21 + Cc1cccc(N(C)C(=O)C2C(O)CCN2c2nc(C)cc(C(F)(F)F)c2C#N)c1
- IC50 (second compound 0.0316 µM): > 10 µM
- IC50 (second compound 0.1 µM): > 10 µM
- IC50 (second compound 0.316 µM): > 10 µM
- IC50 (second compound 1 µM): > 10 µM
- IC50 (second compound 3.16 µM): > 10 µM
- IC50 (second compound 10 µM): > 10 µM
- viability, T/C [1]: 98.9%
- viability, T/C [2]: 97.1%
- viability, T/C [3]: 99.3%
- viability, T/C [4]: 90.9%
- viability, T/C [5]: 98.3%
- viability, T/C [6]: 83.9%
- viability, T/C [7]: 96.6%
- viability, T/C [8]: 99.9%
- viability, T/C [9]: 115%
- viability, T/C [10]: 90.7%
- viability, T/C [11]: 74%
- viability, T/C [12]: 79%
- viability, T/C [13]: 83.8%
- viability, T/C [14]: 101%
- viability, T/C [15]: 102%
- viability, T/C [16]: 106%
- viability, T/C [17]: 109%
- viability, T/C [18]: 80.4%
- viability, T/C [19]: 92.1%
- viability, T/C [20]: 99.5%
- viability, T/C [21]: 116%
- viability, T/C [22]: 90.8%
- viability, T/C [23]: 99.1%
- viability, T/C [24]: 81.2%
- viability, T/C [25]: 85.9%
- viability, T/C [26]: 98.3%
- viability, T/C [27]: 90.2%
- viability, T/C [28]: 101%
- viability, T/C [29]: 109%
- viability, T/C [30]: 61.3%
- viability, T/C [31]: 82%
- viability, T/C [32]: 104%
- viability, T/C [33]: 86.7%
- viability, T/C [34]: 80.1%
- viability, T/C [35]: 111%
- viability, T/C [36]: 67.2%
